{"source": "patent US7947302B2", "about": "“Antithrombotic coating for drug eluting medical devices” (Cordis Corporation, priority 2005, dated 2011)", "key": {"[1]": {"tested_on": "human coronary artery smooth muscle cell", "assay": "MTS cytotoxicity assay (FIG. 69)", "assay_type": "cell-based", "settings": "concentrations up to 30,000.00 nanomolar (6.6 to 30,000.00 nanomolar tested)", "source_text": "Typically, a control is utilized to determine baseline toxicity."}, "[2]": {"tested_on": "human coronary artery smooth muscle cells", "assay": "Anti-proliferative activity in synchronized cultured cells, two percent fetal bovine serum (FIG. 64-68)", "assay_type": "cell-based", "source_text": "(§1) The multiple curves represent various concentrations of topotecan ranging from zero to three hundred nanomolar concentrations.\n(§2) The multiple curves represent various concentrations of etoposide ranging from zero to eight hundred nanomolar concentrations.\nReferring to FIG. 66, there is illustrated, in graphical format, the anti-proliferative activity of Panzem® in synchronized cultured human coronary artery smooth muscle cells stimulated with two percent fetal bovine serum.\nThe multiple curves represent various concentrations of Panzem® ranging from zero to 100 micromolar concentrations."}, "[3]": {"assay": "In vivo release kinetics from rapamycin/cladribine EVA/BMA basecoat, porcine pharmacokinetics studies (FIG. 62, 63)", "parameters": "species or system Yorkshire pigs", "settings": "comparison of FIG. 63 with FIG. 62", "source_text": "The basecoat is applied to Bx Velocity® stents and implanted into Yorkshire pigs.\nThe basecoat is applied to BxVelocity® stents and implanted into Yorkshire pigs."}, "[4]": {"assay": "In vivo release kinetics of cladribine from PVDF/HFP coating on Bx Velocity stents (FIG. 61)", "parameters": "species or system Yorkshire pig", "settings": "1800 micrograms basecoat, thirty percent cladribine, 300 micrograms topcoat", "source_text": "FIG. 61 is a graphical representation of the in vivo release kinetics of cladribine from a polymeric coating on BxVelocity® stents, available from Cordis Corporation, implanted in a Yorkshire pig. The basecoat comprises an 85/15 ratio of PVDF and HFP and cladribine for a total combined weight of one thousand eight hundred micrograms (cladribine comprising thirty percent of the total weight). The topcoat comprises an 85/15 ratio of PVDF/HFP and no cladribine. The total weight of the topcoat is three hundred micrograms."}, "[5]": {"tested_on": "human coronary artery smooth muscle cells", "assay": "Anti-proliferative activity in non-synchronized cultured cells, two percent fetal bovine serum (FIG. 57, 58)", "assay_type": "cell-based", "source_text": "FIG. 58 illustrates, in graphical format, the anti-proliferative activity of cladribine in non-synchronized cultured human coronary artery smooth muscle cells stimulated with two percent fetal bovine serum.\nThe multiple curves represent various concentrations of cladribine ranging from zero to nine hundred nanomolar concentrations."}, "cell viability": {"tested_on": "cell viability", "assay": "Cell viability assay", "assay_type": "cell-based", "source_text": "as §1, §2"}, "[6]": {"tested_on": "human coronary artery smooth muscle cells", "assay": "Anti-proliferative activity of rapamycin with mycophenolic acid, non-synchronized cells, two percent fetal bovine serum (FIG. 52)", "assay_type": "cell-based", "settings": "mycophenolic acid zero to one thousand nanomolar; leftward and upward shift", "source_text": "The multiple curves represent various concentrations of mycophenolic acid ranging from zero to one thousand nanomolar concentrations. […] This potentiation observed in cultured coronary artery smooth muscle cells preferably translates to an enhancement in anti-restenotic efficacy following vascular injury and a reduction in the required amount of either agent to achieve the desired anti-restenotic effect."}, "[7]": {"assay": "In vivo release kinetics from rapamycin/mycophenolic acid EVA/BMA basecoat, porcine pharmacokinetics studies (FIG. 53, 54)", "settings": "180 micrograms rapamycin, 180 micrograms mycophenolic acid, 240 micrograms EVA/BMA; none, 100 or 200 micrograms BMA topcoat"}, "[8]": {"assay": "Liquid formulations with PEG 200, ethanol and water; concentrations by liquid chromatography", "assay_type": "physicochemical", "settings": "liquid formulation comprising 4 mg/ml of sirolimus", "source_text": "In accordance with exemplary embodiments of the present invention, a series of liquid formulations were developed for the local or regional delivery of water insoluble compounds such as sirolimus and its analogs, including CCl-779, ABT-578 and everolimus, through weeping balloons and catheter injection needles. […] These liquid formulations increase the apparent solubility of the pharmacologically active but water insoluble compounds by two to four orders of magnitude as compared to the solubility limits of the compounds in water. These liquid formulations rely on the use of a very small amount of organic solvents such as Ethanol (typically less than two percent) and a larger amount of safe amphiphilic (of or relating to a molecule having a polar, water soluble group attached to a non-polar, water insoluble […]) excipients such as polyethylene glycol (PEG 200, PEG 400) and vitamin E TPGS to enhance the solubility of the compounds. These liquid formulations of highly water insoluble compounds are stable and readily flowable at room temperature. Certain excipients, such as Vitamin E TPGS and BHT may be utilized to enhance the storage stability of sirolimus compounds through their anti-oxidation properties. […]"}, "[9]": {"assay": "In vivo release kinetics from rapamycin/mycophenolic acid PVDF basecoat with PVDF topcoat, porcine pharmacokinetics studies (FIG. 56)", "settings": "600 micrograms basecoat, 200 micrograms topcoat", "source_text": "The topcoat is two hundred micro grams."}, "tumor cell lines": {"tested_on": "tumor cell lines", "settings": "cited from earlier work"}, "[10]": {"tested_on": "human coronary artery smooth muscle cell", "assay": "In vitro cell culture study of coronary artery smooth muscle cell proliferation (trichostatin A)", "assay_type": "cell-based", "source_text": "FIG. 51 is a graph of the inhibition of coronary artery smooth muscle cells by trichostatin A in a cell culture study."}}}
{"smiles": "COc1cc2c(cc1O)CC[C@@H]1[C@@H]2CC[C@]2(C)[C@@H](O)CC[C@@H]12", "note": "[Panzem®, 2-methoxyestradiol]", "values": [{"measurement": "MTS assay: cell survival", "setting": "[1]", "value": "do not reduce human coronary artery smooth muscle cell survival"}, {"measurement": "effect of addition to cells treated with rapamycin", "setting": "[2]; Panzem 0.813 to 100 micromolar", "value": "increases the percent of inhibition of rapamycin alone"}, {"measurement": "anti-proliferative activity (FIG. 66, 67)", "setting": "[2]; in vitro, agent alone", "value": "extremely effective inhibitor"}]}
{"smiles": "Nc1nc(Cl)nc2c1ncn2[C@H]1C[C@H](O)[C@@H](CO)O1", "note": "[cladribine, 2-chlorodeoxyadenosine]", "values": [{"measurement": "in vivo elution from EVA/BMA basecoat with BMA topcoat relative to rapamycin", "setting": "[3]", "value": "elutes more rapidly than rapamycin"}, {"measurement": "in vivo elution from PVDF/HFP (85/15) coating", "setting": "[4]", "value": "levels off significantly"}, {"measurement": "effect of addition to cells treated with rapamycin", "setting": "[5]; cladribine 56.25 to 900 nanomolar", "value": "increases the percent inhibition of rapamycin alone"}, {"measurement": "inhibition of human coronary artery smooth muscle cell proliferation", "setting": "[5]; non-synchronized cells, two percent fetal bovine serum", "value": "completely inhibits"}]}
{"smiles": "COc1cc([C@@H]2c3cc4c(cc3[C@@H](O[C@@H]3O[C@@H]5CO[C@@H](C)O[C@H]5[C@H](O)[C@H]3O)[C@H]3COC(=O)[C@H]23)OCO4)cc(OC)c1O", "note": "[etoposide]", "values": [{"measurement": "cytotoxicity in a cell viability assay", "setting": "cell viability; concentrations up to ten micromolar", "value": "non-cytotoxic"}, {"measurement": "effect of addition to cells treated with rapamycin", "setting": "[2]; etoposide 255.7 to eight-hundred nanomolar", "value": "increases the percent inhibition of rapamycin alone"}]}
{"smiles": "COc1c(C)c2c(c(O)c1C/C=C(\\C)CCC(=O)O)C(=O)OC2", "note": "[mycophenolic acid]", "values": [{"measurement": "effect of addition on the anti-proliferative rapamycin dose response curve", "setting": "[6]", "value": "potentiates the anti-proliferative activity of rapamycin"}, {"measurement": "in vivo elution from EVA/BMA basecoat relative to co-loaded drug", "setting": "[7]", "value": "elutes more completely over a shorter duration than the rapamycin"}]}
{"smiles": "CO[C@H]1C[C@@H]2CC[C@@H](C)[C@@](O)(O2)C(=O)C(=O)N2CCCC[C@H]2C(=O)O[C@H]([C@H](C)C[C@@H]2CC[C@@H](O)[C@H](OC)C2)CC(=O)[C@H](C)/C=C(\\C)[C@@H](O)[C@@H](OC)C(=O)[C@H](C)C[C@H](C)/C=C/C=C/C=C/1C", "note": "[rapamycin]", "values": [{"measurement": "concentration of sirolimus relative to the solubility of sirolimus in water", "setting": "[8]", "value": "four hundred to about one thousand"}, {"measurement": "in vivo release rate from PVDF basecoat with PVDF topcoat relative to co-loaded drug", "setting": "[9]", "value": "slower release rate than that of mycophenolic acid"}]}
{"smiles": "CC[C@@]1(O)C(=O)OCc2c1cc1n(c2=O)Cc2cc3c(CN(C)C)c(O)ccc3nc2-1", "note": "[topotecan]", "values": [{"measurement": "cytotoxicity in a separate cell viability assay", "setting": "cell viability; concentrations up to one micromolar", "value": "non-cytotoxic"}, {"measurement": "effect of addition to cells treated with rapamycin", "setting": "[2]; topotecan 18.8 to 300 nanomolar", "value": "increases the percent inhibition of rapamycin alone"}]}
{"smiles": "CC(/C=C/C(=O)NO)=C\\[C@@H](C)C(=O)c1ccc(N(C)C)cc1", "note": "[trichostatin A]", "values": [{"measurement": "anti-proliferative IC50's", "setting": "tumor cell lines", "value": "low nM range"}, {"measurement": "inhibition of human coronary artery smooth muscle cell proliferation", "setting": "[10]", "value": "completely inhibit"}, {"measurement": "IC50", "setting": "[10]; read-out: anti-proliferative IC50", "value": "~6", "unit": "nM"}]}
